Test system: tissue factor mRNA in LPS-stimulated mouse peritoneal macrophages
Experiment: Assay of mouse peritoneal macrophage tissue factor mRNA
Type: cell-based
Details: test compound 1 μM, 18 h, then LPS 100 ng/ml for 6 h, relative to cyclophilin mRNA, DMSO treatment = 100, read-out: Expressed Amount of Tissue Factor mRNA
Description: 3 ml of thioglycolate (Sigma Chemical) were administered into the abdominal cavity of male C57BL/6J mice (Charles River) followed 4 days later by intraperitoneal administration of 10 ml of phosphate-buffered saline (hereinafter PBS) containing heparin (Hishiyama Pharmaceutical) at a concentration of 5 U/ml and recovery of intraperitoneal macrophages using a syringe. After centrifuging the recovered macrophages at 1000 rpm and 4° C. for 5 minutes, the supernatant was discarded followed by suspending in RPMI 1640 medium (Gibco Laboratories) containing normal fetal bovine serum (hereinafter FBS) at a concentration of 10%. The macrophages were adjusted to a concentration of 4×10^6 cells/ml, disseminated in 1 ml aliquots in a 12-well plate, and cultured for 3 hours at 37° C. using a CO2 incubator. Subsequently, the cells were washed with PBS, and the medium was replaced with RPMI medium containing lipoprotein-deficient serum (hereinafter LPDS) (Sigma Chemical) at a concentration of 5%. Test compounds dissolved in dimethylsulfoxide (DMSO) at a concentration of 1 μM were added to make a final DMSO concentration of 0.1%, and after warming for 18 hours at 37° C., lipopolysaccharide (hereinafter LPS) (Sigma Chemical) was added to make a concentration of 100 ng/ml. The cells were recovered 6 hours later, RNA was extracted using the Rneasy Mini Kit (Qiagen), and after carrying out a reverse transcription reaction using the First-Strand cDNA Synthesis Kit (Amersham Biosciences), the expressed amounts of tissue factor mRNA and cyclophylin mRNA were measured by quantitative RT-PCR (TaqMan, Applied Biosystems 7700 Sequence Detector).
Quantitative RT-PCR for tissue factor was carried out using the aforementioned TF-1 and TF-2 as primers and TF-P as probes, while quantitative PCR for cyclophilin was carried out using the aforementioned Cyl-1 and Cyl-2 as primers and Cyl-P as probes. Both were carried out by warming for 2 minutes at 50° C. and then for 10 minutes at 95° C., followed by 40 warming cycles consisting of warming for 15 seconds at 95° C. and then for 1 minute at 60° C. The expressed amount of tissue factor mRNA was calculated as a relative value of the expressed amount of cyclophilin mRNA. The expressed amounts of tissue factor mRNA resulting from the test compounds at a concentration of 1 μM or 10 μM based on a value of 100 for the expressed amount of tissue factor mRNA in a case of treatment with DMSO at a concentration of […] are shown in Table 7.

Structure (SMILES) | mrna remaining at 1 µM
CN(c1ccc(OCc2ccc(C(F)(F)F)c(O)c2C(=O)OC(C)(C)C)cc1)S(C)(=O)=O [Reference Example 6, tert-Butyl 2-hydroxy-6-({4-[methyl(methylsulfonyl)amino]phenoxy}methyl)-3-(trifluoromethyl)benzoate] | 62.8%
CCc1ccc(COc2ccc(N(C)C(C)=O)cc2)c(C(=O)OC(C)(C)C)c1O [Reference Example 7, tert-Butyl 6-({4-[acetyl(methyl)amino]phenoxy}methyl)-3-ethyl-2-hydroxybenzoate] | 68%
CN(C(=O)CC1CC1)c1ccc(OCc2ccc(C(F)(F)F)c(O)c2C(=O)OC(C)(C)C)cc1 [Reference Example 8, tert-Butyl 6-({4-[(cyclopropylacetyl) (methyl)amino]phenoxy}methyl)-2-hydroxy-3-(trifluoromethyl)benzoate] | 51.8%
CC(C)(C)OC(=O)n1c(COc2ccc(-c3ccc(CC(=O)O)cc3)cc2)cc2ccc(F)cc21 [Reference Example 9, (4′-{[1-(tert-Butoxycarbonyl)-6-fluoro-1H-indol-2-yl]methoxy}-1,1′-biphenyl-4-yl)acetic acid] | 66%
CC(C)(C)OC(=O)n1c(COc2ccc(-c3ccc(CC(=O)O)c(Cl)c3)cc2)cc2ccc(F)cc21 [Reference Example 10, (4′-([1-(tert-Butoxycarbonyl)-6-fluoro-1H-indol-2-yl]methoxy)-3-chloro-1,1′-biphenyl-4-yl)acetic acid] | 68.9%
CC(C)(C)OC(=O)n1c(COc2ccc(-c3ccc(CC(=O)O)s3)cc2)cc2ccc(F)cc21 [Reference Example 11, [5-(4-{[1-(tert-Butoxycarbonyl)-6-fluoro-1H-indol-2-yl]methoxy}phenyl)-2-thienyl]acetic acid] | 61.1%
CC(C)(C)OC(=O)n1c(COc2ccc(-c3ccc(CC(=O)O)cc3Cl)cc2)cc2ccc(F)cc21 [Reference Example 12, (4′-{[1-(tert-Butoxycarbonyl)-6-fluoro-1H-indol-2-yl]methoxy}-2-chloro-1,1′-biphenyl-4-yl)acetic acid] | 54.3%
CC(C)(C)OC(=O)c1c(COc2ccc(-c3ccc(CC(=O)O)cc3)cc2)ccc(C(F)(F)F)c1O [Reference Example 13, (4′-{[2-(tert-Butoxycarbonyl)-3-hydroxy-4-(trifluoromethyl)benzyl]oxy}-1,1′-biphenyl-4-yl)acetic acid] | 65.4%
CC(C)(C)OC(=O)c1c(COc2ccc(-c3ccc(CC(=O)O)c(Cl)c3)cc2)ccc(C(F)(F)F)c1O [Reference Example 14, (4′-{[2-(tert-Butoxycarbonyl)-3-hydroxy-4-(trifluoromethyl)benzyl]oxy}-3-chloro-1,1′-biphenyl-4-yl)acetic acid] | 61.2%
CCc1cc(CC(=O)O)ccc1-c1ccc(OCc2ccc(C(F)(F)F)c(O)c2C(=O)OC(C)(C)C)cc1 [Reference Example 15, (4′-{[2-(tert-Butoxycarbonyl)-3-hydroxy-4-(trifluoromethyl)benzyl]oxy}-2-ethyl-1,1′-biphenyl-4-yl)acetic acid] | 55.5%
Cc1c(CC(=O)O)cccc1-c1ccc(OCc2ccc(C(F)(F)F)c(O)c2C(=O)OC(C)(C)C)cc1 [Reference Example 16, (4′-{[2-(tert-Butoxycarbonyl)-3-hydroxy-4-(trifluoromethyl)benzyl]oxy}-2-methyl-1,1′-biphenyl-3-yl)acetic acid] | 65.4%
CC(C)c1ccc(COc2ccc(-c3ccc(CC(=O)O)cc3)cc2)c(C(=O)OC(C)(C)C)c1O [Reference Example 18, (4′-{[2-(tert-Butoxycarbonyl)-3-hydroxy-4-isopropylbenzyl]oxy}-1,1′-biphenyl-4-yl)acetic acid] | 56.9%
CC(C)(C)OC(=O)c1c(COc2ccc(-c3ccc(CC(=O)O)s3)cc2)ccc(C(F)(F)F)c1O [Reference Example 21, [5-(4-{[2-(tert-Butoxycarbonyl)-3-hydroxy-4-(trifluoromethyl)benzyl]oxy}phenyl)-2-thienyl]acetic acid] | 68.9%
CC(C)(C)OC(=O)c1c(COc2ccc(-c3ccc(CC(=O)O)cc3[N+](=O)[O-])cc2)ccc(C(F)(F)F)c1O [Reference Example 22, (4′-{[2-(tert-Butoxycarbonyl)-3-hydroxy-4-(trifluoromethyl)benzyl]oxy}-2-nitro-1,1′-biphenyl-4-yl)acetic acid] | 54%
CC(C)(C)OC(=O)c1c(COc2ccc(-c3ccc(CC(=O)O)c(F)c3)cc2)ccc(C(F)(F)F)c1O [Reference Example 23, (4′-{[2-(tert-Butoxycarbonyl)-3-hydroxy-4-(trifluoromethyl)benzyl]oxy}-3-fluoro-1,1′-biphenyl-4-yl)acetic acid] | 51.6%
Cc1cc(CC(=O)O)ccc1-c1ccc(OCc2ccc(C(F)(F)F)c(O)c2C(=O)OC(C)(C)C)cc1 [Reference Example 24, (4′-{[2-(tert-Butoxycarbonyl)-3-hydroxy-4-(trifluoromethyl)benzyl]oxy}-2-methyl-1,1′-biphenyl-4-yl)acetic acid] | 61.8%
COc1cc(CC(=O)O)ccc1-c1ccc(OCc2ccc(C(F)(F)F)c(O)c2C(=O)OC(C)(C)C)cc1 [Reference Example 25, (4′-{[2-(tert-Butoxycarbonyl)-3-hydroxy-4-(trifluoromethyl)benzyl]oxy}-2-methoxy-1,1′-biphenyl-4-yl)acetic acid] | 64%
CC(C)(C)OC(=O)c1c(COc2ccc(-c3ccc(CC(=O)O)cc3Cl)cc2)ccc(C(F)(F)F)c1O [Reference Example 26, (4′-{[2-(tert-Butoxycarbonyl)-3-hydroxy-4-(trifluoromethyl)benzyl]oxy}-2-chloro-1,1′-biphenyl-4-yl)acetic acid] | 42.3%
CC(C)(C)OC(=O)c1c(COc2ccc(-c3ccc(CC(=O)O)cc3C(F)(F)F)cc2)ccc(C(F)(F)F)c1O [Reference Example 27, (4′-{[2-(tert-Butoxycarbonyl)-3-hydroxy-4-(trifluoromethyl)benzyl]oxy}-2-trifluoromethyl-1,1′-biphenyl-4-yl)acetic acid] | 63.5%
CC(C)(C)OC(=O)c1c(COc2ccc(-c3ccc(CC(=O)O)cc3N)cc2)ccc(C(F)(F)F)c1O [Reference Example 30, (2-Amino-4′-{[2-(tert-butoxycarbonyl)-3-hydroxy-4-(trifluoromethyl)benzyl]oxy}-1,1′-biphenyl-4-yl)acetic acid] | 65.6%

Same assay, conditions: test compound 10 μM, 18 h, then LPS 100 ng/ml for 6 h, relative to cyclophilin mRNA, DMSO treatment = 100, read-out: Expressed Amount of Tissue Factor mRNA

Structure (SMILES) | mrna remaining at 10 µM
CC(C)(C)OC(=O)c1c(COc2ccc(-c3ccc(CC(=O)O)cc3)cc2)ccc(F)c1O [Reference Example 19, (4′-{[2-(tert-Butoxycarbonyl)-4-fluoro-3-hydroxybenzyl]oxy}-1,1′-biphenyl-4-yl)acetic acid] | 51.6%
CC(C)(C)OC(=O)c1c(COc2ccc(-c3ccc(CC(=O)O)cc3)cc2)ccc(Cl)c1O [Reference Example 20, (4′-{[2-(tert-Butoxycarbonyl)-4-chloro-3-hydroxybenzyl]oxy}-1,1′-biphenyl-4-yl)acetic acid] | 58.1%
CC(C)(C)OC(=O)c1c(COc2ccc(-c3ccc(C4(C(=O)O)CC4)cc3)cc2)ccc(C(F)(F)F)c1O [Reference Example 28, 1-(4′-{[2-(tert-Butoxycarbonyl)-3-hydroxy-4-(trifluoromethyl)benzyl]oxy}-1,1′-biphenyl-4-yl)cyclopropanecarboxylic acid] | 41.7%
CC(C)(C)OC(=O)c1c(COc2ccc(-c3cccc(S(C)(=O)=O)c3)cc2)ccc(C(F)(F)F)c1O [Reference Example 29, tert-Butyl 2-hydroxy-6-({[3′-(methylsulfonyl)-1,1′-biphenyl-4-yl]oxy}methyl)-3-(trifluoromethyl)benzoate] | 88.4%
CN(C)c1cc(CC(=O)O)ccc1-c1ccc(OCc2ccc(C(F)(F)F)c(O)c2C(=O)OC(C)(C)C)cc1 [Reference Example 31, [4′-{[2-(tert-Butoxycarbonyl)-3-hydroxy-4-(trifluoromethyl)benzyl]oxy}-2-(dimethylamino)-1,1′-biphenyl-4-yl]acetic acid] | 33.7%

Source: patent publication US20080255111A1, “Tissue Factor Production Inhibitor” (SANKYO COMPANY LIMITED, priority 2004, published 2008)
